Reference: ChEMBL document CHEMBL4414631 (J Med Chem, 2019)

Experiments:
[1] = biological target: Phosphatidylinositol 4,5-bisphosphate 3-kinase catalytic subunit beta isoform (Homo sapiens, UniProt P42338); assay: Inhibition of PI3Kbeta (unknown origin) using biotin-PIP3 as substrate preincubated for 15 mins followed by substrate addition and measured after 60 mins by fluorescence polarization assay
[2] = Lipophilicity, logD of compound at pH 7.4 by HPLC-MS analysis; conditions: buffer
[3] = biological target: Phosphatidylinositol 4,5-bisphosphate 3-kinase catalytic subunit alpha isoform (Homo sapiens, UniProt P42336)
Description: Inhibition of PI3Kalpha (unknown origin) using biotin-PIP3 as substrate preincubated for 15 mins followed by substrate addition and measured after 60 mins by fluorescence polarization assay

[4] = biological target: T1, Phosphatidylinositol 4,5-bisphosphate 3-kinase catalytic subunit delta isoform (Homo sapiens, UniProt O00329)
T1 sequence (O00329 whole entry): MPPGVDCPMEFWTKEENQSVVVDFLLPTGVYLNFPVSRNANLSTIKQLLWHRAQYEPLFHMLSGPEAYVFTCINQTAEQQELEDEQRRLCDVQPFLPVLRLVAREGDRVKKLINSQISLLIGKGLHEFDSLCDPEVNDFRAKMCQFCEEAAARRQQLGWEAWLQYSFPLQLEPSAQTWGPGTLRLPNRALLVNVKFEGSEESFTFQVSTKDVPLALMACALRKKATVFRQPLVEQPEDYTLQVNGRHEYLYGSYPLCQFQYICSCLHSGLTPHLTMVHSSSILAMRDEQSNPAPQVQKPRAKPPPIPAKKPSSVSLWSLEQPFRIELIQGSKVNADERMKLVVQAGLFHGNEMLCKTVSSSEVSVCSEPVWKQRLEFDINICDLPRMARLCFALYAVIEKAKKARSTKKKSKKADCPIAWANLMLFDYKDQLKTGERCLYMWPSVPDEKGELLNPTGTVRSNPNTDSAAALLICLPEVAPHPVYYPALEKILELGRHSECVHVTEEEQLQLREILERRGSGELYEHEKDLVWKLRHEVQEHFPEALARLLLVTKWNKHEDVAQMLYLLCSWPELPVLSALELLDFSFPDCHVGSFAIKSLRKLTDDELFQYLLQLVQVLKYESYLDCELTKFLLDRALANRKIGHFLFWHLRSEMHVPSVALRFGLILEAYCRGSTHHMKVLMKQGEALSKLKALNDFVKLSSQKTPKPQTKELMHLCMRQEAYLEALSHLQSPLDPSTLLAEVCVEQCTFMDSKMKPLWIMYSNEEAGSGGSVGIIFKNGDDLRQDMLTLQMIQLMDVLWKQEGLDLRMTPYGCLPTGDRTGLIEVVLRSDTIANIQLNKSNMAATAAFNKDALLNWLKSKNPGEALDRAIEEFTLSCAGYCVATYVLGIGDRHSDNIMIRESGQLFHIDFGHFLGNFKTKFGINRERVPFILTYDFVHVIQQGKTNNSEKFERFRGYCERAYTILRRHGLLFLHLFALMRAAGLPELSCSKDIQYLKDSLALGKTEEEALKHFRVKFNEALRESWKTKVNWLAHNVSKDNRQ
Description: Inhibition of PI3Kdelta (unknown origin) using biotin-PIP3 as substrate preincubated for 15 mins followed by substrate addition and measured after 60 mins by fluorescence polarization assay

[5] = biological target: Phosphatidylinositol 4,5-bisphosphate 3-kinase catalytic subunit gamma isoform (Homo sapiens, UniProt P48736)
Sequence of Phosphatidylinositol 4,5-bisphosphate 3-kinase catalytic subunit gamma isoform (P48736 whole entry, canonical isoform): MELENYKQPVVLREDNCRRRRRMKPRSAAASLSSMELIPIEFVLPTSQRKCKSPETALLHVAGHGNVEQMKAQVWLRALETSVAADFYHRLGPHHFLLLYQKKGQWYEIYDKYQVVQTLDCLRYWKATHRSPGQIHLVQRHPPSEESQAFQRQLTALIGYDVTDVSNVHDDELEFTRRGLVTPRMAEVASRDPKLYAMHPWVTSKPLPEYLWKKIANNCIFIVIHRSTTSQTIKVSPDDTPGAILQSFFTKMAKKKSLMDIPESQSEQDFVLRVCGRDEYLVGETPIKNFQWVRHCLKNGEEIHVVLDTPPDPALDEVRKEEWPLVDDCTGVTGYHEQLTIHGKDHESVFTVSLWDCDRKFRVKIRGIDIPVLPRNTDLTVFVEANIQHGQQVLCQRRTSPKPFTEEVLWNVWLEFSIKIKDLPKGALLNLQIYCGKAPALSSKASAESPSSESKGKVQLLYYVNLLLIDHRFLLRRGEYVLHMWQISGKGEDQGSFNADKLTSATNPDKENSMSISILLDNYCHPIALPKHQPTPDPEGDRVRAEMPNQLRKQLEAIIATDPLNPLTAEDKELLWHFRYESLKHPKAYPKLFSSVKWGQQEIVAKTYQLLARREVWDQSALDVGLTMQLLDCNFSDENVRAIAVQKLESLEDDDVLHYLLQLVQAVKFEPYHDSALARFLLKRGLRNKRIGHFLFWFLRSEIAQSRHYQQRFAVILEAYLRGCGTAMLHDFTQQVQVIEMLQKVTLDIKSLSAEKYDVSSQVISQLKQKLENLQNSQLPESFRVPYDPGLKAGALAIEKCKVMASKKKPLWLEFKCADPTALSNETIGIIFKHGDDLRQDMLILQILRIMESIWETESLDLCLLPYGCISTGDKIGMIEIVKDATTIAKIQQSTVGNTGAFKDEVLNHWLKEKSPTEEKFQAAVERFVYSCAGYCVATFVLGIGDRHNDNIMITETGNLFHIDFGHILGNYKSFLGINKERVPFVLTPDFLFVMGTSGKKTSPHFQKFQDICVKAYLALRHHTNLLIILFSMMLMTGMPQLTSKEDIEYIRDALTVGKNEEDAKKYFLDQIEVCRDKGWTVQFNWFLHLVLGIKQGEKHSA
Description: Inhibition of PI3Kgamma (unknown origin) using biotin-PIP3 as substrate preincubated for 15 mins followed by substrate addition and measured after 60 mins by fluorescence polarization assay

Sequence of Phosphatidylinositol 4,5-bisphosphate 3-kinase catalytic subunit beta isoform (P42338 whole entry, canonical isoform): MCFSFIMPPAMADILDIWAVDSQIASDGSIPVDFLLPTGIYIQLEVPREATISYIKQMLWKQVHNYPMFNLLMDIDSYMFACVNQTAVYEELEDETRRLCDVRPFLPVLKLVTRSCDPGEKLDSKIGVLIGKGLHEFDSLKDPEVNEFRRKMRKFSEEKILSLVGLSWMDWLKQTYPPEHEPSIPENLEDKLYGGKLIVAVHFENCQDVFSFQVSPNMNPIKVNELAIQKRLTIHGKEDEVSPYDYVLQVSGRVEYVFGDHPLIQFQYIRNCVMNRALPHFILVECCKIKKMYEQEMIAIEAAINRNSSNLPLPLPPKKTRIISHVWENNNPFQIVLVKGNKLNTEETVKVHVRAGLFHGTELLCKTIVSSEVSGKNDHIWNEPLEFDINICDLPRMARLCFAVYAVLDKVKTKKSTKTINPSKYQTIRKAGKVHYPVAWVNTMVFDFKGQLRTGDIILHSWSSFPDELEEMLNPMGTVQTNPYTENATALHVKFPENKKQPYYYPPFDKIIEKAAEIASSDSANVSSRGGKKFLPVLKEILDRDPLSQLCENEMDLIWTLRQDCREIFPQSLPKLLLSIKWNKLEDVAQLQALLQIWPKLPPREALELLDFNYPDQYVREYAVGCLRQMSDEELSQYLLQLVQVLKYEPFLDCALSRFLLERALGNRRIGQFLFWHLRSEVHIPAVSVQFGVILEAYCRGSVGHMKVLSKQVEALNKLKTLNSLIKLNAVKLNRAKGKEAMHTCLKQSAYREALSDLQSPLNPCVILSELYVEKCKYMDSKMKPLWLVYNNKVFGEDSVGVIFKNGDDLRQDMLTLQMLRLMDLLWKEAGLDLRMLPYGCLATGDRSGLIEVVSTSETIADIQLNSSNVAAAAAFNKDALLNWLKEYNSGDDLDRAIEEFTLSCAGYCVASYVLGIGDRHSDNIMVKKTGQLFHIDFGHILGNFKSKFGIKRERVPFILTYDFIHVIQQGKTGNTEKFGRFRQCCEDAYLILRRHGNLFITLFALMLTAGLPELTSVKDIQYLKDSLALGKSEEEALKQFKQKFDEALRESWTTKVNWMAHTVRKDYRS
Sequence of Phosphatidylinositol 4,5-bisphosphate 3-kinase catalytic subunit alpha isoform (P42336 whole entry, canonical isoform): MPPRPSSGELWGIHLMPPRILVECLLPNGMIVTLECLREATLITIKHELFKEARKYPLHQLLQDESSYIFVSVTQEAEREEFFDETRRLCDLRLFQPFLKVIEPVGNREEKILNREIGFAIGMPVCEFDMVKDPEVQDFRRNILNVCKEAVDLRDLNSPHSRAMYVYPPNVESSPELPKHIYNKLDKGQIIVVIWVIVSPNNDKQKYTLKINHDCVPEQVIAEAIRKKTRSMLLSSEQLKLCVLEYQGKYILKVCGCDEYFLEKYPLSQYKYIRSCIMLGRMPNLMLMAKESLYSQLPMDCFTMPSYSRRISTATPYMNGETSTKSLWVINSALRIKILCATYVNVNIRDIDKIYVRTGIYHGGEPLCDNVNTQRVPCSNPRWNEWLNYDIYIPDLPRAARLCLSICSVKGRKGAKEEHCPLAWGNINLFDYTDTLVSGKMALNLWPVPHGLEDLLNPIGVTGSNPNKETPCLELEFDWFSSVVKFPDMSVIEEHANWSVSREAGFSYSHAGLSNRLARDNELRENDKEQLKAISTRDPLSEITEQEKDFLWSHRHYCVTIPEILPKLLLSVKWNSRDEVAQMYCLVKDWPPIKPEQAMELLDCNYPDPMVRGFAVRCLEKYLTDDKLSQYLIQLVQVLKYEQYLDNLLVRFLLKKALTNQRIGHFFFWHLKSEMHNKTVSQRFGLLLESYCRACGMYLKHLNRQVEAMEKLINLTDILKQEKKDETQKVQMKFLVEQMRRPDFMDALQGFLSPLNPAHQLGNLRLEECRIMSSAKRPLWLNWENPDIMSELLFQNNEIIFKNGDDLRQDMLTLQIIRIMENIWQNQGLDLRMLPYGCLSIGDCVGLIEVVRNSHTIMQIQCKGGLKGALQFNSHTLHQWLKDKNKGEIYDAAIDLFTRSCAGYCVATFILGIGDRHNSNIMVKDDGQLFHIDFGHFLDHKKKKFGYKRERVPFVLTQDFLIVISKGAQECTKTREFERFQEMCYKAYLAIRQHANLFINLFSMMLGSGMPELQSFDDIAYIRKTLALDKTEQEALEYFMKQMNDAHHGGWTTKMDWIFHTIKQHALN

Compound | IC50 [1] | logD [2] | IC50 [3] | IC50 [4] | IC50 [5]
COCC(=O)N(C)C1CCCN(Cc2cc3nc(-c4cnc(N)nc4)nc(N4CCOCC4)c3s2)C1 (racemic) | 1580 nM | 2.8 | 100 nM | 50.1 nM | 126 nM
CS(=O)(=O)NC1CCN(Cc2cc3nc(-c4cccc5[nH]ccc45)nc(N4CCOCC4)c3s2)CC1 | 631 nM | 4.4 | 1260 nM | 20 nM | 1000 nM
CN(C1CCCN(Cc2cc3nc(-c4cnc(N)nc4)nc(N4CCOCC4)c3s2)C1)S(C)(=O)=O (racemic) | 1000 nM | 3.5 | 39.8 nM | 5.01 nM | 25.1 nM
COCC(=O)NC1CCN(Cc2cc3nc(-c4cccc5[nH]ccc45)nc(N4CCOCC4)c3s2)CC1 |  | 4.3 |  | 79.4 nM | 
CNC(=O)NC1CCN(Cc2cc3nc(-c4cccc5[nH]ccc45)nc(N4CCOCC4)c3s2)C1 (racemic) | 2000 nM | 3.4 | 3160 nM | 126 nM | 3980 nM
CNC(=O)N(C)C1CCCN(Cc2cc3nc(-c4cccc5[nH]ccc45)nc(N4CCOCC4)c3s2)C1 (racemic) | 10000 nM | 4.5 | 3160 nM | 126 nM | 6310 nM
CC(=O)NC1CCN(Cc2cc3nc(-c4cnc(N)nc4)nc(N4CCOCC4)c3s2)CC1 | 1580 nM | 2.2 | 126 nM | 100 nM | 158 nM
CC(=O)N(C)C1CCCN(Cc2cc3nc(-c4cccc5[nH]ccc45)nc(N4CCOCC4)c3s2)C1 (racemic) | 2510 nM | 5 | 1580 nM | 25.1 nM | 2510 nM
COCC(=O)NC1CCN(Cc2cc3nc(-c4cnc(N)nc4)nc(N4CCOCC4)c3s2)C1 (racemic) | 501 nM | 2.3 | 39.8 nM | 79.4 nM | 50.1 nM
CC(=O)N(C)C1CCN(Cc2cc3nc(-c4cnc(N)nc4)nc(N4CCOCC4)c3s2)C1 (racemic) | 631 nM | 2.8 | 20 nM | 12.6 nM | 39.8 nM
CC(=O)N(C)[C@H]1CCN(Cc2cc3nc(-c4cnc(N)nc4)nc(N4CCOCC4)c3s2)C1 | 631 nM | 2.5 | 20 nM | 12.6 nM | 15.8 nM
CC(=O)NC1CCN(Cc2cc3nc(-c4cnc(N)nc4)nc(N4CCOCC4)c3s2)C1 (racemic) | 501 nM | 1.9 | 31.6 nM | 79.4 nM | 79.4 nM
CS(=O)(=O)NC1CCCN(Cc2cc3nc(-c4cccc5[nH]ccc45)nc(N4CCOCC4)c3s2)C1 (racemic) | 1260 nM | 5 | 1580 nM | 25.1 nM | 1000 nM
COCC(=O)NC1CCCN(Cc2cc3nc(-c4cnc(N)nc4)nc(N4CCOCC4)c3s2)C1 (racemic) | 10000 nM | 3 | 501 nM | 316 nM | 631 nM
CC(=O)NC1CCN(Cc2cc3nc(-c4cccc5[nH]ccc45)nc(N4CCOCC4)c3s2)C1 (racemic) | 1260 nM | 3.7 | 3160 nM | 63.1 nM | 2000 nM
CNC(=O)N(C)C1CCCN(Cc2cc3nc(-c4cnc(N)nc4)nc(N4CCOCC4)c3s2)C1 (racemic) | 2000 nM | 2.9 | 79.4 nM | 79.4 nM | 200 nM
CNC(=O)NC1CCN(Cc2cc3nc(-c4cccc5[nH]ccc45)nc(N4CCOCC4)c3s2)CC1 | 2510 nM | 3.6 | 3980 nM | 158 nM | 
CC(=O)N(C)C1CCN(Cc2cc3nc(-c4cnc(N)nc4)nc(N4CCOCC4)c3s2)CC1 | 398 nM | 2.8 | 39.8 nM | 6.31 nM | 39.8 nM
CS(=O)(=O)NC1CCCN(Cc2cc3nc(-c4cnc(N)nc4)nc(N4CCOCC4)c3s2)C1 (racemic) | 316 nM | 3.1 | 20 nM | 15.8 nM | 39.8 nM
CC(=O)NC1CCN(Cc2cc3nc(-c4cccc5[nH]ccc45)nc(N4CCOCC4)c3s2)CC1 |  | 4 | 3160 nM | 79.4 nM | 
CNC(=O)NC1CCN(Cc2cc3nc(-c4cnc(N)nc4)nc(N4CCOCC4)c3s2)C1 (racemic) | 1000 nM | 1.7 | 63.1 nM | 158 nM | 158 nM
COCC(=O)N(C)C1CCN(Cc2cc3nc(-c4cnc(N)nc4)nc(N4CCOCC4)c3s2)CC1 | 631 nM | 2.7 | 126 nM | 15.8 nM | 126 nM
COCC(=O)NC1CCN(Cc2cc3nc(-c4cccc5[nH]ncc45)nc(N4CCOCC4)c3s2)CC1 | 3980 nM | 3.9 | 398 nM | 126 nM | 
CNC(=O)NC1CCN(Cc2cc3nc(-c4cccc5[nH]ncc45)nc(N4CCOCC4)c3s2)CC1 | 3160 nM | 3.1 | 251 nM | 100 nM | 

Continued, values first:

IC50 [1] | logD [2] | IC50 [3] | IC50 [4] | IC50 [5] | Compound
1580 nM | 3.8 | 501 nM | 25.1 nM |  | COCC(=O)N(C)C1CCN(Cc2cc3nc(-c4cccc5[nH]ncc45)nc(N4CCOCC4)c3s2)CC1
7940 nM | 4.3 | 501 nM | 50.1 nM | 1580 nM | CS(=O)(=O)NC1CCCN(Cc2cc3nc(-c4cccc5[nH]ncc45)nc(N4CCOCC4)c3s2)C1 (racemic)
5010 nM | 4.5 | 316 nM | 39.8 nM | 794 nM | CN(C1CCN(Cc2cc3nc(-c4cccc5[nH]ncc45)nc(N4CCOCC4)c3s2)CC1)S(C)(=O)=O
1260 nM | 5.2 | 1580 nM | 12.6 nM | 794 nM | CN(C1CCN(Cc2cc3nc(-c4cccc5[nH]ccc45)nc(N4CCOCC4)c3s2)CC1)S(C)(=O)=O
1580 nM | 4.6 | 126 nM | 25.1 nM | 398 nM | CN(C1CCN(Cc2cc3nc(-c4cccc5[nH]ncc45)nc(N4CCOCC4)c3s2)C1)S(C)(=O)=O (racemic)
2510 nM | 2.9 | 316 nM | 200 nM | 1260 nM | CNC(=O)NC1CCN(Cc2cc3nc(-c4cccc5[nH]ncc45)nc(N4CCOCC4)c3s2)C1 (racemic)
3160 nM | 3.5 | 251 nM | 63.1 nM | 1260 nM | CS(=O)(=O)NC1CCN(Cc2cc3nc(-c4cccc5[nH]ncc45)nc(N4CCOCC4)c3s2)C1 (racemic)
501 nM | 5.1 | 631 nM | 10 nM | 501 nM | CN(C1CCN(Cc2cc3nc(-c4cccc5[nH]ccc45)nc(N4CCOCC4)c3s2)C1)S(C)(=O)=O (racemic)
7940 nM | 3.6 | 316 nM | 100 nM | 3160 nM | CNC(=O)NC1CCCN(Cc2cc3nc(-c4cccc5[nH]ncc45)nc(N4CCOCC4)c3s2)C1 (racemic)
2000 nM | 4.1 | 501 nM | 31.6 nM | 1000 nM | CC(=O)N(C)C1CCN(Cc2cc3nc(-c4cccc5[nH]ncc45)nc(N4CCOCC4)c3s2)CC1
3160 nM | 3.4 | 316 nM | 200 nM | 794 nM | COCC(=O)NC1CCN(Cc2cc3nc(-c4cccc5[nH]ncc45)nc(N4CCOCC4)c3s2)C1 (racemic)
6310 nM | 4 | 251 nM | 79.4 nM | 1260 nM | CC(=O)NC1CCCN(Cc2cc3nc(-c4cccc5[nH]ncc45)nc(N4CCOCC4)c3s2)C1 (racemic)
1580 nM |  | 794 nM | 63.1 nM | 1580 nM | CNC(=O)N(C)C1CCN(Cc2cc3nc(-c4cccc5[nH]ncc45)nc(N4CCOCC4)c3s2)C1 (racemic)
6310 nM | 3.2 | 631 nM | 200 nM |  | CC(=O)NC1CCN(Cc2cc3nc(-c4cccc5[nH]ncc45)nc(N4CCOCC4)c3s2)CC1
